In patent US20050113318A1, “Combination of dehydroepiandrosterone or dehydroepiandrosterone-sulfate with a beta-agonist bronchodilator for treatment of asthma or chronic obstructive pulmonary disease” (priority 2003, published 2005):

How the values were obtained:
[1] = Short-term solution stability of DHEA-S in 0.12% NaCl; assay type: physicochemical; settings: for appearance / decomposition on storage: 10 mg/mL in 0.12% NaCl
Method: Aliquots of this solution are filled into clear glass vials and stored at RT (24-26° C.) and at 40° C. The samples are checked daily for DHEA-S content, DHEA content, and appearance. For each time point, duplicate samples are withdrawn and diluted from each vial. […] The study is stopped on day three. […] The solution should easily be stable for the day of reconstitution in a clinical trial. The following section describes the aerosol properties of this formulation.

[2] = Solubility of DHEA-S dihydrate and nebulizer solution properties; assay type: physicochemical; settings: for solubility: range of triplicates
Excerpt: Inhalation of pure water can produce a cough stimulus. […] The temperature effect is weaker at high NaCl concentrations.

HT-29 SF cells [3] = experiment: Reversal of DHEA-mediated growth inhibition; assay type: cell-based, human; settings: 25 μM DHEA, 48 hours; 2 μM MVA, 80 μM SQ, 15 μg/ml CH, RN 30 μM each, DN 20 μM each
HT-29 SF cells [4] = experiment: Reversal of DHEA effect on cell cycle; assay type: cell-based, human; settings: 25 μM DHEA, 48 and 72 hours
tissue adenosine = experiment: In vivo effect on adenosine levels in various rat tissues; design: species or system Fischer 344 rats
Method: Folinic acid (50 mg/kg) was administered intraperitoneally once daily for fourteen days. […] Hearts were removed from animals and flash frozen in liquid nitrogen with 10 s of death. Liver and lungs were removed en bloc and flash frozen with 30 s of death. Brain tissue was subsequently dissected.

[5] = Physicochemical testing of DHEA-S dihydrate (BET surface area, Karl Fischer water, impurities)
Method: (§1) Surface area is determined using five point BET analyses are performed with nitrogen as the adsorbing gas (P/Po=0.05 to 0.30) using a Micromeritics TriStar surface area analyzer. Particle size distributions are measured by laser diffraction using a Micromeritics Saturn Digisizer where the particles are suspended in mineral oil th sodium dioctyl sodium sulfosuccinate as a dispersing agent. Drug substance water content is measured by Karl Fischer titration (Schott Titroline KF). Pure water is used as the standard and all relative standard deviations for triplicates are less than 1%. Powder is added directly to the titration media.

[6] = Fine particle fraction, single-dose Acu-Breathe inhaler into Andersen impactor; assay type: physicochemical; settings: neat micronized powder, 30 to 75 L/min, FIG. 1
Method: These blisters are actuated into the Andersen 8-stage cascade impactor at flow rates ranging from 30 to 75 L/min with a glass twin-impinger throat. Stages 1-5 of the Andersen impactor are rinsed together to obtain an estimate of the fine particle fraction. Pooling the drug collected from multiple stages into one assay make the method much more sensitive. […] Using a carrier with a larger particle size typically improves the aerosol properties of micronized drug substances.
Approximately 25 mg of this powder is filled and sealed in foil blisters and aerosolized using the single-dose device at 60 L/min. The aerosol results for this preliminary powder blend are satisfactory for a respiratory drug delivery system. […] This diameter is smaller than the median diameter measured for micronized DHEA-S.dihydrate by laser diffraction. Irregularly shaped particles can behave aerodynamically as smaller particles since their longest dimension tends to align with the air flow field. Therefore, it is common to see a difference between the two methods. Diffraction measurements are a quality control test for the input material while cascade impaction is a quality control test for the finished product.

[7] = Particle size of DHEA-S powders (laser diffraction, light microscope); assay type: physicochemical
Method: Approximately 1 g sample was passed through the jet mill, once, and approximately 2 g sample were passed through the jet mill twice. […] The resulting solution was sonicated for 3 minutes and appeared fully dispersed. The dispersed solutions were tested on a Malvern Mastersizer X with a small volume sampler (SVS) attachment. One sample of dispersed material was tested 5 times. The median particle size or D (v, 0.5) of unmilled material was 52.56 μm and the % RSD (relative standard deviation) was 7.61 for the 5 values. The D (v, 0.5) for a single pass through the jet mill was 3.90 μm and the % RSD was 1.27, and the D (v, 0.5) from a double pass through the jet mill 3.25 μm and the % RSD was 3.10.
The solution was spray-dried with a B-191 Mini Spray-Drier (Buchi, Flawil, Switzerland) with an inlet temperature of 55° C., outlet temperature of 40° C., at 100% aspirator, at 10% pump, nitrogen flow at 40 mbar and spray flow at 600 units. The spray-dried product was suspended in hexane and Span85 surfactant added to reduce agglomeration. The dispersions were sonicated with cooling for 3-5 minutes for complete dispersion and the dispersed solutions tested on a Malvern Mastersizer X with a Small Volume Sampler (SVS) attachment. […] Visual examination by light microscope of the dispersions of each batch confirmed that spray drying produced small respirable size particles. The mean particle size was 2.4 μm and 2.0 μm for each batch, respectively.
as §1

[8] = Solid-state stability with and without lactose (DHEA formed, HPLC); assay type: physicochemical
Excerpt: These conditions were used to stress the formulation in order to predict its long-term stability results. […] This color change is accompanied by a significant change in the chromatogram as shown in. FIG. 1. The primary degradant is DHEA. […] The materials on accelerated storage become more cohesive with time as evidenced by clumping during sample weighing for chemical analysis. […] This is a considerable disadvantage since lactose is the most commonly used inhalation excipient for dry powder formulations. Continuing with the virtually anhydrous form would mean limiting formulations to neat powder or undertaking more comprehensive safety studies to use a novel excipient.

[9] = tested on: rat peritoneal mast cells; experiment: Compound 48/80-induced histamine release from rat peritoneal mast cells; assay type: cell-based
Method: Following incubation, the mixture is cooled to 4° C. then centrifuged at 4500 rpm for 5 min. The supernatant is collected and mixed for 30 min at 4° C. with 5% TCA (trichloroacetic acid) to cause protein precipitation. After centrifugation at 9500×g for 15 min, the supernatant is collected and mixed with 0.25 M HCl. Thereafter, the samples are mixed with 2M NaOH and 0.2% OPT (ortho-phtalaldehyde).and incubated for 30 min at 4° C. in darkness, after which time the reaction is stopped by addition of 0.5 M H2SO4.
The amount of secreted histamine is quantified by measuring the fluorescence intensity at λex=360 nm and λem=450 nm using a spectrofluorimeter (GeminiXS, Molecular Devices). The results are expressed as a percent inhibition of control histamine secretion.

HT-29 SF cells [10] = experiment: DHEA effect on cell cycle distribution (flow cytometry); assay type: cell-based, human
Method: Cells were plated at 10^5/60-mm dish in duplicate. […] Cultures were trypsinized following […] and fixed and stained using a modification of a procedure of Bauer et al., Cancer Res. 46, 3173-3178 (1986). Briefly, cells were collected by centrifugation and resuspended in cold phosphate-buffered saline. Cells were fixed in 70% ethanol, washed, and resuspended in phosphate-buffered saline.
After 24, 48, and 72 hours, cells were harvested, fixed in ethanol, and stained with propidium iodide, and the DNA content/cell was determined by flow cytometric analysis. The percentage of cells in G1, S, and G2M phases was calculated using the Cellfit cell cycle analysis program. S phase is marked by a quadrangle for clarity. Representative histograms from duplicate determinations are shown. The experiment was repeated three times.

HT-29 SF cells [11] = experiment: DHEA effect on cell growth (Coulter counter); assay type: cell-based, human; settings: 12.5-200 μM, 24-72 hours, FIG. 14
[12] = rat, daily for two weeks, DHEA, high dose methyltestosterone

C[C@]12CC[C@H](OS(=O)(=O)[O-])CC1=CC[C@@H]1[C@@H]2CC[C@]2(C)C(=O)CC[C@@H]12.[Na+] [DHEA-S, sodium dehydroepiandrostenone sulfate]
solution stability of nebulizer formulation ([1]; 7.5 mg/mL in 0.12% NaCl, RT): stable for at least one day at RT
appearance / decomposition on storage ([1]; 40° C.): became cloudy after two days of storage
appearance / decomposition on storage ([1]; RT (24-26° C.)): slight precipitate is observed on the third day
solubility in hexane [2]: insoluble
solubility ([2]; 0.9% NaCl, refrigerated (7-8° C.)): 1100 to 1300 µg/mL
Ksp ([2]; 15° C., interpolated): ~1316 mM^2
equilibrium constant Ksp ([2]; refrigerated (7-8° C.)): 665 mM^2
equilibrium constant Ksp ([2]; room temperature (24-25° C.)): 2236 mM^2
solubility ([2]; ~25° C., 0% NaCl, excess DHEA-S dihydrate): 16500 to 17400 µg/mL

CC(C)=CCC/C(C)=C/CC/C(C)=C/CC/C=C(\C)CC/C=C(\C)CCC=C(C)C [SQ, squalene]
reversal of DHEA-induced growth inhibition by supplement (HT-29 SF cells [3]): no such effect

CC(C)CCC[C@@H](C)[C@H]1CC[C@H]2[C@@H]3CC=C4C[C@@H](O)CC[C@]4(C)[C@H]3CC[C@]12C [CH, cholesterol]
reversal of DHEA-induced growth inhibition by supplement (HT-29 SF cells [3]): no such effect
prevention of DHEA-induced S phase depletion by supplement (HT-29 SF cells [4]): very little effect at 48 hours and no effect at 72 hours

C[C@@](O)(CCO)CC(=O)O [MVA, mevalonic acid]
reversal of DHEA-induced growth inhibition by supplement (HT-29 SF cells [3]): partially overcome
prevention of DHEA-induced S phase depletion by supplement (HT-29 SF cells [4]): partially prevented this effect in the initial 48 hours but not after 72 hours

Nc1nc(=O)c2c([nH]1)NCC(CNc1ccc(C(=O)N[C@@H](CCC(=O)O)C(=O)O)cc1)N2C=O (mixture of isomers) [Folinic Acid]
Intracellular adenosine, Brain (tissue adenosine; rat brain, once daily 14 days, DHEA 300 mg/kg, methyltestosterone 40 mg/kg by gavage, folinic acid 50 mg/kg i.p., mean ± SEM): 0.72 ± 0.09 nmols/mg protein
Intracellular adenosine, Heart (tissue adenosine; rat heart, once daily 14 days, DHEA 300 mg/kg, methyltestosterone 40 mg/kg by gavage, folinic acid 50 mg/kg i.p., mean ± SEM): 12.4 ± 2.1 nmols/mg protein
Intracellular adenosine, Liver (tissue adenosine; rat liver, once daily 14 days, DHEA 300 mg/kg, methyltestosterone 40 mg/kg by gavage, folinic acid 50 mg/kg i.p., mean ± SEM): 16.4 ± 2.4 nmols/mg protein
adenosine levels, folinic acid administered alone (tissue adenosine; rat, 50 mg/kg i.p. 14 days): increase in adenosine levels for all organs studied
effect of coadministration of folinic acid on steroid-mediated adenosine depletion (tissue adenosine; rat, with DHEA or methyltestosterone): completely abrogated

C[C@]12CCC(=O)C=C1CC[C@@H]1[C@@H]2CC[C@@]2(C)[C@H]1CC[C@]2(C)O [Methyltestosterone]
Intracellular adenosine, Liver (tissue adenosine; rat liver, methyltestosterone 120 mg/kg, mean ± SEM): 5.1 ± 0.5 nmols/mg protein
depletion of adenosine in brain (tissue adenosine; [12]): 34%
depletion of adenosine in heart (tissue adenosine; [12]): 22%
Intracellular adenosine, Liver (tissue adenosine; rat, in vivo): 16.5 ± 0.9 nmols/mg protein

CC12CCC3C(CC=C4CC(OS(=O)(=O)[O-])CCC43C)C1CCC2=O.[Na+] (centres unmarked) [DHEA-S dihydrate]
Impurities ([5]; Bulk): No significant peaks
Water ([5]; Bulk): 8.5 % w/w
Impurities ([5]; Micronized): No significant peaks
Surface area ([5]; Micronized): 4.9 m^2/g
Water ([5]; Micronized): 8.4 % w/w
fine particle fraction as a function of flow rate [6]: higher fine particle fraction than the virtually anhydrous material
Particle size (D50%) ([7]; Bulk, before micronization): 31 microns
Particle size (D50%) ([7]; Micronized): 3.7 microns
DHEA % formed ([8]; 50° C., 1 week): 0.216%
DHEA % formed ([8]; 50° C., 3 weeks): 0.317%
DHEA % formed ([8]; 50° C., 4 weeks): 0.374%
DHEA % formed ([8]; Control: neat, sealed vial, 25° C., 4 weeks): 0.218%
DHEA % formed ([8]; Control: neat, sealed vial, 25° C., first time column (head empty, time 0)): 0.213%
water content, starting value ([8]; before storage): 8.8%
water content after accelerated storage ([8]; one week at 50° C.): 8.66%

CC(C)(C)NCC(O)c1ccc(O)c(CO)c1 (stereo not drawn) [Salbutamol, (α1-tert-butylaminomothyl)-4-hydroxy-m-xylene-α1,α3-diol]
inhibition at 1 pM ([9]; Rattus norvegicus, Mast cell): -1%
inhibition at 10 pM ([9]; Rattus norvegicus, Mast cell): 7%
inhibition at 0.0001 µM ([9]; Rattus norvegicus, Mast cell): 2%
inhibition of compound 48/80-induced histamine release ([9]; Salbutamol 1, 10 and 100 pM alone): no or trivial inhibition

C[C@]12CC[C@H](O)CC1=CC[C@@H]1[C@@H]2CC[C@]2(C)C(=O)CC[C@@H]12 [DHEA, 3β-hydroxyandrost-5-en-17-one]
cell cycle distribution (HT-29 SF cells [10]; 200 μM DHEA, 24 hours): increase in the percentage of cells in G1 and a decreased proportion of cells in S phase
cell cycle block (HT-29 SF cells [10]; 25-200 μM, 24-72 hours, FIG. 15): G1 block
cell cycle distribution (HT-29 SF cells [10]; 25 or 50 μM DHEA, 72 hours): percentage of cells in G1 phase was increased
cell cycle distribution (HT-29 SF cells [10]; 25 or 50 μM DHEA, initial 24 hours): unchanged
inhibition of growth (HT-29 SF cells [11]): time- and dose-dependent inhibition of growth
